Results from EP2511272B1, “Synthetic analogues of abscisic acid with anti-inflammatory and insulin release stimulation effects on human cells” (Universita' degli Studi di Genova, priority 2011, dated 2012).

Tested on: human granulocytes
Assay: Determination of intracellular cAMP levels (inhibition of ABA-induced cAMP increase)
Type: cell-based
Protocol: Human granulocytes, after being incubated overnight (ON) in DMEM/F12 supplemented with 10% of foetal bovine serum (FCS), penicillin (50 units/ml) and streptomycin (50 µg/ml) (DMEM/F12 complete), were centrifuged at 200xg for 5 min and were then resuspended in HBSS (Hanks' Balanced Salt Solution) with calcium and magnesium (15 x 10^6 cells /200 µl) and preincubated for 5 minutes at 25 °C in the presence of 10 µM of phosphodiesterase inhibitor 4-[(3-butoxy-4-methoxyphenyl)-methyl]-2-imidazolidinone (Ro-20-1724). Two hundred (200) µl of suspension were then drawn and were incubated for 1 minute with 1 µM ABA (Sigma-Aldrich) either alone, or in the presence of decreasing concentrations (from 50 µM to 0.01 nM) of test compounds obtained according to the preceding examples. The reaction was terminated by the addition of 13 µl of perchloroacetic acid (PCA) to the end concentration of 0.6 M at 4 °C.
The cell lysates were centrifuged for 5 min at 17,000 x g at 4 °C and the supernatant was adjusted at pH 7.5 with 3 M potassium carbonate (K2CO3). The reaction led to the development of gas CO2 and the formation of a white precipitate of potassium perchlorate (KClO4), which was removed by a 5-minute centrifugation at 17,000xg at 4 °C.
Intracellular concentration of cAMP was determined by means of the competitive radioimmunological test [^3H]cAMP assay system (Amersham, GE Healthcare), following manufacturer's instructions..
The experiments were carried out three times, in triplicate.
Tests were carried out on human granulocytes according to the above explained procedure, in which the production of cAMP was compared to a group of control cells in case of treatment with ABA 1 µM and with ABA 1 µM + tested compound 50 µM.

CC(=C/C(=O)O)/C=C/C1(O)C(C)(C)CC(=O)C2OC21C (single isomer, unassigned) [Example 1, trans, 2'α,3'α-dihydro-2'α,3'α-epoxyabscisic acid]
inhibition at 50 µM (ABA 1 µM + tested compound 50 µM, read-out: inhibition (production of cAMP)): 100% | inhibition at 10 pM (cAMP increase induced by 1 µM ABA, compound 0.01 nM): 0% | inhibition at 0.0001 µM (cAMP increase induced by 1 µM ABA, compound 0.1 nM): 25% | inhibition at 0.001 µM (cAMP increase induced by 1 µM ABA, compound 1 nM): 57% | inhibition at 0.1 µM (cAMP increase induced by 1 µM ABA, compound 100 nM): 100% | inhibition at 1 µM (cAMP increase induced by 1 µM ABA, compound 1 µM): 100% | inhibition at 5 µM (cAMP increase induced by 1 µM ABA, compound 5 µM): 100% | inhibition at 10 µM (cAMP increase induced by 1 µM ABA, compound 10 µM): 100% | IC50 (increase in cAMP concentration induced by 1 µM ABA): ~1 nM
